From PubChem BioAssay (NCI)
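How tested: cells in 96-well plates exposed to compound for 48 hours at five concentrations. TGI: total growth inhibition.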

Legend:
Assay in all cases: NCI tumour cell line growth inhibition, 48 h
HS 578T breast = system: HS 578T breast
KM12 colon = system: KM12 colon
M14 melanoma = system: M14 melanoma
NCI-H23 lung = system: NCI-H23 lung
OVCAR-3 ovarian = system: OVCAR-3 ovarian
PC-3 prostate = system: PC-3 prostate
SF-295 CNS = system: SF-295 CNS
SR leukemia = system: SR leukemia
SW-620 colon = system: SW-620 colon
T-47D breast = system: T-47D breast
SF-539 CNS = system: SF-539 CNS

Structure (SMILES) | TGI (HS 578T breast) [µM] | TGI (KM12 colon) [µM] | TGI (M14 melanoma) [µM] | TGI (NCI-H23 lung) [µM] | TGI (OVCAR-3 ovarian) [µM] | TGI (PC-3 prostate) [µM] | TGI (SF-295 CNS) [µM] | TGI (SR leukemia) [µM] | TGI (SW-620 colon) [µM] | TGI (T-47D breast) [µM] | TGI (SF-539 CNS) [µM]
C/C=C\C(CC(=O)NCC(=O)c1c[nH]c2ccccc12)CC(=O)OC (stereo not drawn) | > 100 | > 100 | > 100 | > 100 | > 100 | > 100 | > 100 | > 100 | > 100 | > 100 | 
CN1CCN(/C(N)=C(\C#N)C(=O)Nc2ccc(Cl)cc2)CC1 |  | > 100 | > 100 | > 100 | > 100 | > 100 | > 100 | 95.3 | > 100 | > 100 | > 100
c1ccc2c(c1)OCCOCCOc1ccccc1OCCO2 |  | > 100 | > 100 | > 100 | 70 |  | > 100 |  | 77.1 |  | > 100
O=C(Cn1c2ccc(Br)cc2c2nc3ccccc3nc21)NNC(=S)NC1CCCCC1 | 52.9 | 48.2 | 24.2 | 30.5 | 22.8 | 24 | 25.7 |  | 29.2 | 45.8 | 
COc1ccc2nc3cc(Cl)ccc3c(Sc3ccc(NC(C)=O)cc3)c2c1 |  | > 35.2 | > 38.5 | > 33.5 | > 22.8 |  | > 51.2 | 16.1 | > 22.3 |  | 27.3
O=C1CCSCCC(=O)Nc2ccccc2N1 | > 100 | > 100 | > 100 | > 100 | > 100 | > 100 | > 100 | > 100 | > 100 | > 100 | > 100
CC(=O)OCC1OC(n2c(C)c(N=Nc3ccc(Cl)cc3)c(C)c(C#N)c2=S)C(OC(C)=O)C(OC(C)=O)C1OC(C)=O (stereo not drawn) | 68 | > 100 | > 100 | > 100 | > 100 | > 100 | 76.5 | > 100 | > 100 | > 100 | > 100
Cc1cc(C)nc(NC(P(=O)(O)O)P(=O)(O)O)n1 | > 100 | > 100 | > 100 | > 100 | > 100 | > 100 | > 100 |  |  |  | > 100
CC(=O)OCCOCNC(=S)N/N=C/c1ccc([N+](=O)[O-])s1 |  | > 100 | > 100 | 43.1 | > 100 |  | > 100 | > 100 | > 100 |  | > 100
O=C1C(Br)=CC2(C=C1Br)CCNC1=C2C(=O)c2ncccc2C1=O | 5.34 | 3.53 | 3.01 | 1.65 | 4.56 | 8.59 | 2.74 | 2.07 | 2.73 | 4.48 | 0.841
NC1(CCNC(=O)c2ccccc2)CCN(C(=O)c2ccccc2)CC1 | > 100 | > 100 | > 100 | > 100 |  | > 100 | > 100 | > 100 | > 100 | > 100 | > 100
